{
  "source": "patent US20120142730A1",
  "about": "(priority 2010, published 2012)",
  "system": "subjects with RRMS",
  "test": "BRAVO phase III trial: laquinimod vs placebo and Interferon β-1a (Avonex) reference arm",
  "type": "in vivo, human",
  "method": "A multinational, multicenter, randomized, parallel-group, clinical trial is performed in subjects with RRMS (“BRAVO”).\nInterferon β-1a (Avonex®) 30 mcg intramuscular injection once weekly (400 subjects).\nDuring the study, the following assessments are performed (regardless of the treatment assignment) at the specified time points: • 1. Vital signs (temperature, pulse, blood pressure) are measured at each study visit. • 2. A physical examination is performed at months −1 (screening), (baseline) 1, 3, 6, 12, 18 and 24 (termination/early discontinuation). • 3. The following safety clinical laboratory tests are performed: • a. Hematology and Complete blood count (CBC) with differential—at all scheduled visits. A reticulocyte count is added to the CBC at months 0 (baseline) and 24 (termination/early discontinuation) as well as in occasions of significant decrease in hemoglobin. • b. Serum chemistry (including electrolytes, liver enzymes, direct and total bilirubin, CPK and pancreatic amylase), and urinalysis—at all scheduled visits. • c. Serum TSH, T3 and Free T4 are measured at months 0 (baseline), 6, 12, 18 and 24 (termination/early discontinuation). • d. A rapid urine β-hCG test is performed in women of child-bearing potential at baseline (month 0; all subjects) and at each scheduled study visit thereafter (at site; only subjects assigned to oral treatment). • e. β-hCG in women of child-bearing potential are performed at each study visit. • f. Starting after visit Month 3 a rapid urine β-hCG test is performed in women of child-bearing potential (only those assigned to oral treatment) every 28 (±2) days. The subject is contacted by telephone with 72 hours after the test is scheduled to be performed and asked specific questions regarding the test. In case of suspected pregnancy (positive urine β-hCG test result), the caller makes sure that the study drug has been discontinued and the subject is instructed to arrive to the site as soon as possible with all study drugs. • 4. Markers of inflammation (serum conventional C-reactive protein and fibrinogen) are measured at all scheduled visits. • 5. […] These samples are collected at months 0, 12 and 24. • 6. […] In case of suspected thrombotic event, the subject is requested to arrive at the site immediately for further evaluation. […] ECG is performed at months −1 (screening; additional recording, up to 30 minutes apart are performed if QTc is >450 msec), 0 (baseline; three recordings, 15 minute apart), 1, 2, 3, 6, 12, 18 and 24 (termination/early discontinuation). • 8. Chest X-ray is performed at month −1 (screening) (if not performed within 6 months prior to screening visit). • 9. Adverse Events (AEs) are monitored throughout the study and recorded. • 10. Concomitant medications are monitored throughout the study. • 11. Neurological evaluations, including Neurostatus [Functional Systems (FS), Expanded Disability Status Scale (EDSS; Converted scale), Ambulation Index (AI)] and Timed-25 foot walk test are performed at months −1 (screening), 0 (baseline) and every 3 months thereafter, until termination/early discontinuation. (At screening visit, the Timed-25 foot walk test is performed 3 times, for practicing purposes, as a part of the MSFC). • 12. MS Functional Composite (MSFC) is assessed at months −1 (screening) (three practices for training purposes only), 0 (baseline), 6, 12, 18 and 24 (termination/early discontinuation). • 13. The general health status is assessed by the EuroQoL (EQ5D) questionnaire at months 0 (baseline) and 24 (termination/early discontinuation). • 14. The general health status and quality of life parameters are assessed by the Short-Form general health survey (SF-36) subject-reported questionnaire at month 0 (baseline) and every 6 months thereafter until termination/early discontinuation, inclusive. • 15. Subject-reported fatigue is assessed by the Modified Fatigue Impact Scale (MFIS) at months 0 (baseline), 2, 6, 12, 18 and 24 (termination/early discontinuation). • 16. […]",
  "key": {"[1]": {"conditions": "0.6 mg daily oral compared to weekly 30 mcg Interferon β-1a (Avonex)"}},
  "data": [
    {"smiles": "CCN(C(=O)c1c(O)c2c(Cl)cccc2n(C)c1=O)c1ccccc1", "note": "[Laquinimod, laquinimod]", "values": [
      {"measurement": "Accumulation of physical disability (MSFC score, time to confirmed progression of EDSS)", "setting": "0.6 mg daily oral", "result": "reduces the accumulation of physical disability"},
      {"measurement": "Brain atrophy (percent brain volume change from baseline to end of treatment)", "setting": "0.6 mg daily oral", "result": "reduces brain atrophy"},
      {"measurement": "Fatigue (MFIS)", "setting": "0.6 mg daily oral", "result": "reduces the fatigue"},
      {"measurement": "General health status (SF-36)", "setting": "0.6 mg daily oral", "result": "improves the general health status"},
      {"measurement": "Prevention or delay of relapses", "setting": "0.6 mg daily oral", "result": "prevents or delays relapses"},
      {"measurement": "Quality of life (EuroQoL EQ5D)", "setting": "0.6 mg daily oral", "result": "improves the quality of life"},
      {"measurement": "Severe relapses (requiring hospitalization or intravenous steroid treatment)", "setting": "0.6 mg daily oral", "result": "reduces the rate of severe relapses or the severity of relapses"},
      {"measurement": "Adverse effects", "setting": "[1]", "result": "fewer adverse effects, less severe adverse effects"},
      {"measurement": "Safety and tolerability profile", "setting": "[1]", "result": "favorable safety and tolerability profile"},
      {"measurement": "Number of confirmed relapses", "setting": "0.6 mg daily oral, vs placebo and Avonex arm", "result": "reduces the number of confirmed relapses"}
    ]}
  ]
}
